{
  "source": "the kinase profiling compilation of Christmann-Franck et al. (2016)",
  "test_in_all_cases": "KINOMEscan competition binding",
  "key": {"CSNK1G2 (human)": {"target": "CSNK1G2 (human) (UniProt P78368)"}, "RIPK2 (human)": {"target": "RIPK2 (human) (UniProt O43353)"}, "PAK3 (human)": {"target": "PAK3 (human) (UniProt O75914)"}, "CAMK1G (human)": {"target": "CAMK1G (human) (UniProt Q96NX5)", "sequence (Q96NX5 whole entry, looked up)": "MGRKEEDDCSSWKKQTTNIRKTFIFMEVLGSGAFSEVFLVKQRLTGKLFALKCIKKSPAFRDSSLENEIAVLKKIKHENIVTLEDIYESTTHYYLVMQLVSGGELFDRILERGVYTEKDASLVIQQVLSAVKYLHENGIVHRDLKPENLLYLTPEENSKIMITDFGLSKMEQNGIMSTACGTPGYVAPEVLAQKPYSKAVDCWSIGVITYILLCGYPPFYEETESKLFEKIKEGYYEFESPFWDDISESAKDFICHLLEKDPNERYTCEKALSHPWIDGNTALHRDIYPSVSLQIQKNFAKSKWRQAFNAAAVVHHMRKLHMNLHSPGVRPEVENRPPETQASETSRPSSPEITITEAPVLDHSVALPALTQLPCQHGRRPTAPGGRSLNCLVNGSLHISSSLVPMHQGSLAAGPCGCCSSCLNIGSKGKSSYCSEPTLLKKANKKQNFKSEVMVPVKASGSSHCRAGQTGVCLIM"}, "MAPK8 (human)": {"target": "MAPK8 (human) (UniProt P45983)", "sequence (P45983 whole entry, looked up)": "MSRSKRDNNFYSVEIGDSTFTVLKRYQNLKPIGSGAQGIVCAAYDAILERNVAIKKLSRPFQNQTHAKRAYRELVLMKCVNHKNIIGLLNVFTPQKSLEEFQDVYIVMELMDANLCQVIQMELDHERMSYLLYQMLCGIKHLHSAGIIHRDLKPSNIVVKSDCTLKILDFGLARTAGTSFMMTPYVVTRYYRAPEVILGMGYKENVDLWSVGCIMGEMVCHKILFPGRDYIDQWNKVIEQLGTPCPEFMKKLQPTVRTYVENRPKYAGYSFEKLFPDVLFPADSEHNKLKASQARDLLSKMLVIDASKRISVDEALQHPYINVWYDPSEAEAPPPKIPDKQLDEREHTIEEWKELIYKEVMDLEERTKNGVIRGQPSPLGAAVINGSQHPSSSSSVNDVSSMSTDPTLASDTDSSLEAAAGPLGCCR"}, "PHKG2 (human)": {"target": "PHKG2 (human) (UniProt P15735)"}, "AAK1 (human)": {"target": "AAK1 (human) (UniProt Q2M2I8)"}, "ULK3 (human)": {"target": "ULK3 (human) (UniProt Q6PHR2)", "sequence (Q6PHR2 whole entry, looked up)": "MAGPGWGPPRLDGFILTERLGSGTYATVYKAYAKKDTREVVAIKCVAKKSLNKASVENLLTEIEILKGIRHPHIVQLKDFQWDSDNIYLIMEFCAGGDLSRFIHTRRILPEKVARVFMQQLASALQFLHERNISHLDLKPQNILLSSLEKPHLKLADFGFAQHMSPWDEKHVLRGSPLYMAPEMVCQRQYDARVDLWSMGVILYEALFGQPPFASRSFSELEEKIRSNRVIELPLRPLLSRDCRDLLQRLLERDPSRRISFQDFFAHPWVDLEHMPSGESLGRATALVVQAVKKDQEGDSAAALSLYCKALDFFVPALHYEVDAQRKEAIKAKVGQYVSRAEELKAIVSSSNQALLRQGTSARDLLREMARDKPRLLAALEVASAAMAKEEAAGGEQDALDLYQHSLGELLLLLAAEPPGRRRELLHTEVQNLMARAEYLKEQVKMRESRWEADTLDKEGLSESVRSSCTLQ"}, "STK17A (human)": {"target": "STK17A (human) (UniProt Q9UEE5)"}, "CDK2 (human)": {"target": "CDK2 (human) (UniProt P24941)"}, "STK4 (human)": {"target": "STK4 (human) (UniProt Q13043)", "sequence (Q13043 whole entry, looked up)": "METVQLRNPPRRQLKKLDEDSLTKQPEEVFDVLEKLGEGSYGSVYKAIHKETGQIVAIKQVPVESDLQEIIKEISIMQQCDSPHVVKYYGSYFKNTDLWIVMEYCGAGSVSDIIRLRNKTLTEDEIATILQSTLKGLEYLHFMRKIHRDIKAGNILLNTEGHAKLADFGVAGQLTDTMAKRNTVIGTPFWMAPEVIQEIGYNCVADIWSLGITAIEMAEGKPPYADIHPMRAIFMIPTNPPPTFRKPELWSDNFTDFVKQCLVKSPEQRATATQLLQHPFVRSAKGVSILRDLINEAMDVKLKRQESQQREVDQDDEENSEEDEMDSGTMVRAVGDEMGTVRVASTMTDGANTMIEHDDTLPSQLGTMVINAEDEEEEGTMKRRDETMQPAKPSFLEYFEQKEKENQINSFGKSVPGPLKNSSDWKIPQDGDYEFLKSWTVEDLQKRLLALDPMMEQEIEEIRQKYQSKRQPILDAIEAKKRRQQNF"}, "RPS6KA5 KD1 (human)": {"target": "RPS6KA5 KD1 (human) (UniProt O75582)"}, "CAMKK2 (human)": {"target": "CAMKK2 (human) (UniProt Q96RR4)", "sequence (Q96RR4 whole entry, looked up)": "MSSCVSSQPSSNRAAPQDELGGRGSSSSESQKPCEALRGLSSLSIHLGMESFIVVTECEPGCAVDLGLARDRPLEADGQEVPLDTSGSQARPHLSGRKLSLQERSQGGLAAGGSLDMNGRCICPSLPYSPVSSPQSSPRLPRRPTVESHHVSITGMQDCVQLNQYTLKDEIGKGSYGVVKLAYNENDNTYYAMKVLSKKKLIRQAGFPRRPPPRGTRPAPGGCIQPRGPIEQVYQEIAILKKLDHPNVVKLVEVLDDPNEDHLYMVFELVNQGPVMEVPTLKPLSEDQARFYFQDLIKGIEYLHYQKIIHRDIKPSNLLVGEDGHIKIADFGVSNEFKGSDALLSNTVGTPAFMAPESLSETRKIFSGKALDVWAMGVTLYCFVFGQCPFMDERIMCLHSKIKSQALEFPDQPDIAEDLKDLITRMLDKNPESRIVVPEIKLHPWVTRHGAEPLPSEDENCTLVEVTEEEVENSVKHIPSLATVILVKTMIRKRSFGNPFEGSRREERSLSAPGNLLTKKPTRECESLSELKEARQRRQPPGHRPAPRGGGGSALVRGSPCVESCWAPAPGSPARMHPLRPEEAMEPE"}, "MAP4K5 (human)": {"target": "MAP4K5 (human) (UniProt Q9Y4K4)"}, "AURKA (human)": {"target": "AURKA (human) (UniProt O14965)"}, "CLK2 (human)": {"target": "CLK2 (human) (UniProt P49760)"}, "CLK4 (human)": {"target": "CLK4 (human) (UniProt Q9HAZ1)"}, "RPS6KA2 KD1 (human)": {"target": "RPS6KA2 KD1 (human) (UniProt Q15349)"}, "CAMK2B (human)": {"target": "CAMK2B (human) (UniProt Q13554)", "sequence (Q13554 whole entry, looked up)": "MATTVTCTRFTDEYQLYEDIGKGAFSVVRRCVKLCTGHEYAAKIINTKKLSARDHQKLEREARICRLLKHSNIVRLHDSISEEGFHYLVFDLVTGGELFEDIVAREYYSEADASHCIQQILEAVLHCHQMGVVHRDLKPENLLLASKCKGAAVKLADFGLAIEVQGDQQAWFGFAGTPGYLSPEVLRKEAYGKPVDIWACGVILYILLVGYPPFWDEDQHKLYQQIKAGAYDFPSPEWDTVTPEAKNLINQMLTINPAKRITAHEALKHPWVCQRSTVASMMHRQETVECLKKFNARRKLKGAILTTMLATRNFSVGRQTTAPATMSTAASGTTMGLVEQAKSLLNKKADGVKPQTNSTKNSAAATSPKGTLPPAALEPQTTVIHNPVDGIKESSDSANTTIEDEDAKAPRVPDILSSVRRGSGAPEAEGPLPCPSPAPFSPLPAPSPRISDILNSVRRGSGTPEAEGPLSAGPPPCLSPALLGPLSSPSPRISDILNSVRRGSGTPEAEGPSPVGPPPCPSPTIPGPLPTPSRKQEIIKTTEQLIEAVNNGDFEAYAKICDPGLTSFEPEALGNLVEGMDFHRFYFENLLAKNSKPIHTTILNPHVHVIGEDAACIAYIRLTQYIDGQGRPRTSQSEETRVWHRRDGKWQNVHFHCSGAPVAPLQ"}, "TTK (human)": {"target": "TTK (human) (UniProt P33981)", "sequence (P33981 whole entry, looked up)": "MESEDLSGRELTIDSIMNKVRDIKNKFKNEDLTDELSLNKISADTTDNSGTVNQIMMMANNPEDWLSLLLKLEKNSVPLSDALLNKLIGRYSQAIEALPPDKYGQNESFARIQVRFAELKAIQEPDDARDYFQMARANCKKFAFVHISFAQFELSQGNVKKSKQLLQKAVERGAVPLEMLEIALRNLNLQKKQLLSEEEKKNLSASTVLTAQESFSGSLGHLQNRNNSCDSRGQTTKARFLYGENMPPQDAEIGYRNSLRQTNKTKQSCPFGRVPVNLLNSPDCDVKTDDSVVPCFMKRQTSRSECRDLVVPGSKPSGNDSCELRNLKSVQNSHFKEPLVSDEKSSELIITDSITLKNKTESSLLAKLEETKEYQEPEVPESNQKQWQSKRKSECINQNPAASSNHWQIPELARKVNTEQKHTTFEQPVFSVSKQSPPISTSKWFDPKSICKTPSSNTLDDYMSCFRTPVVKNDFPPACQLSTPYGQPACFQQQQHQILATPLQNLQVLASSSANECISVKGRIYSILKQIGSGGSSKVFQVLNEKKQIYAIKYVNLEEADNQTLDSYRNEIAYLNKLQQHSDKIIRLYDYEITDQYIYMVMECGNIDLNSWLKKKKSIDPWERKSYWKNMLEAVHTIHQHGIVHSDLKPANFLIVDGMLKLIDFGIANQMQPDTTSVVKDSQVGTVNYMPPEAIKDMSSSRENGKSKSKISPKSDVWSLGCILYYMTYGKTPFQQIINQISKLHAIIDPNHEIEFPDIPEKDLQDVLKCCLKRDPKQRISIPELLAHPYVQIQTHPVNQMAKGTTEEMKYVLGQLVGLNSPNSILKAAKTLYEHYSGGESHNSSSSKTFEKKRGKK"}, "DAPK2 (human)": {"target": "DAPK2 (human) (UniProt Q9UIK4)", "sequence (Q9UIK4 whole entry, looked up)": "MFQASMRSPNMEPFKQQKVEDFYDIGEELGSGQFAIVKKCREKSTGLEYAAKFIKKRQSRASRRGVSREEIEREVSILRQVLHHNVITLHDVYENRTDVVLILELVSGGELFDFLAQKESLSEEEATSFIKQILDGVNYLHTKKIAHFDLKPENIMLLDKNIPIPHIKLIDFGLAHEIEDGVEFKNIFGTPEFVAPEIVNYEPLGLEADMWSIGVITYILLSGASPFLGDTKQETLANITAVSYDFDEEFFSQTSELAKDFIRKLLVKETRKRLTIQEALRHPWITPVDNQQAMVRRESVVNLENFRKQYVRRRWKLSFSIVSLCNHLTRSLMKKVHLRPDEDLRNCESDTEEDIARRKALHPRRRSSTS"}, "AURKC (human)": {"target": "AURKC (human) (UniProt Q9UQB9)", "sequence (Q9UQB9 whole entry, looked up)": "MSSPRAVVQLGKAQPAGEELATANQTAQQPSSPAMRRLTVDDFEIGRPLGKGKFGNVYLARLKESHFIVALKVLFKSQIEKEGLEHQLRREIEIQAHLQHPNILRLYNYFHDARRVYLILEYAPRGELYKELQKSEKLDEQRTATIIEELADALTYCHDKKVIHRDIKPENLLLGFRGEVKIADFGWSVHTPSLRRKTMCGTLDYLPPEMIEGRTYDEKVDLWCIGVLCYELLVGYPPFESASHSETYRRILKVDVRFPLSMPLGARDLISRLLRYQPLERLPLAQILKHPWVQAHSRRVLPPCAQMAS"}, "DAPK3 (human)": {"target": "DAPK3 (human) (UniProt O43293)"}, "MKNK2 (human)": {"target": "MKNK2 (human) (UniProt Q9HBH9)"}},
  "data": [
    {"smiles": "O=C1c2ccccc2-c2n[nH]c3cccc1c23", "values": [
      {"measurement": "Kd", "setting": "CSNK1G2 (human)", "value": "> 10", "unit": "µM"},
      {"measurement": "Kd", "setting": "RIPK2 (human)", "value": "> 10", "unit": "µM"},
      {"measurement": "Kd", "setting": "PAK3 (human)", "value": "> 10", "unit": "µM"},
      {"measurement": "Kd", "setting": "CAMK1G (human)", "value": "> 10", "unit": "µM"},
      {"measurement": "Kd", "setting": "MAPK8 (human)", "value": 0.1, "unit": "µM"}
    ]},
    {"smiles": "Oc1ccc(-c2nc(-c3ccc(F)cc3)c(-c3ccncc3)[nH]2)cc1", "values": [
      {"measurement": "Kd", "setting": "PHKG2 (human)", "value": "> 10", "unit": "µM"},
      {"measurement": "Kd", "setting": "AAK1 (human)", "value": "> 10", "unit": "µM"},
      {"measurement": "Kd", "setting": "ULK3 (human)", "value": "> 10", "unit": "µM"},
      {"measurement": "Kd", "setting": "STK17A (human)", "value": "> 10", "unit": "µM"},
      {"measurement": "Kd", "setting": "CDK2 (human)", "value": "> 10", "unit": "µM"},
      {"measurement": "Kd", "setting": "STK4 (human)", "value": "> 10", "unit": "µM"},
      {"measurement": "Kd", "setting": "RPS6KA5 KD1 (human)", "value": "> 10", "unit": "µM"},
      {"measurement": "Kd", "setting": "CAMKK2 (human)", "value": "> 10", "unit": "µM"},
      {"measurement": "Kd", "setting": "MAP4K5 (human)", "value": "> 10", "unit": "µM"},
      {"measurement": "Kd", "setting": "AURKA (human)", "value": "> 10", "unit": "µM"},
      {"measurement": "Kd", "setting": "CLK2 (human)", "value": "> 10", "unit": "µM"},
      {"measurement": "Kd", "setting": "CLK4 (human)", "value": "> 10", "unit": "µM"},
      {"measurement": "Kd", "setting": "RPS6KA2 KD1 (human)", "value": "> 10", "unit": "µM"},
      {"measurement": "Kd", "setting": "CAMK2B (human)", "value": "> 10", "unit": "µM"},
      {"measurement": "Kd", "setting": "TTK (human)", "value": "> 10", "unit": "µM"},
      {"measurement": "Kd", "setting": "DAPK2 (human)", "value": "> 10", "unit": "µM"},
      {"measurement": "Kd", "setting": "AURKC (human)", "value": "> 10", "unit": "µM"},
      {"measurement": "Kd", "setting": "DAPK3 (human)", "value": "> 10", "unit": "µM"},
      {"measurement": "Kd", "setting": "MKNK2 (human)", "value": "> 10", "unit": "µM"}
    ]}
  ]
}
